According to article PMC5845353, “The selective cathepsin K inhibitor MIV-711 attenuates joint pathology in experimental animal models of osteoarthritis” (Journal of Translational Medicine, 2018):

System: rabbits subjected to anterior cruciate ligament transection (ACLT)
Assay: Rabbit ACLT study, histomorphometry of bone, cartilage and osteophytes
Format: in vivo
Method: The femora and tibias were decalcified, embedded in paraffin, sectioned at 5-7 µm at two different levels separated by approximately 2 mm, and stained with safranin O and toluidine blue.
Both tibial plateaus and femoral condyles (i.e. four joint compartments) were also subjected to histomorphometric analysis of cartilage, subchondral bone, cancellous bone, and osteophytes. The measurements were made using OsteoMeasureXP version 3.3.0.2 as follows:
Uncalcified cartilage area was measured by tracing the articular surface (cartilage perimeter) and bone or calcified cartilage/uncalcified cartilage interface (cartilage boundary).
Cartilage width was measured by point to point measurement at intersections between a sampling grid with approximately 0.5 mm spacing and the cartilage boundary. The intercepts measured were orthogonal to the cartilage boundary and ended at the cartilage perimeter. At intersections where the cartilage width was zero due to erosion, a value of zero was recorded.
Subchondral bone width was measured by point to point measurement at intersections between a sampling grid with approximately 0.5 mm spacing and the cartilage boundary. The intercepts measured were orthogonal to the cartilage boundary and ended at the first marrow cavity encountered that had at least one dimension approximately equivalent to nearby trabecular thickness.
Osteophyte area was measured for abaxial osteophytes. On the femur, osteophytes associated with the condyles but not with the trochlear grooves were measured.
Bone area (including osteoid) and perimeter were measured in a 3.8 X 1.5 mm ROI centered approximately 1 mm below the bone/cartilage interface. This ROI was intended to be equivalent to the subchondral cancellous bone VOI measured by microCT. Bone volume (BV/TV), trabecular thickness (Tb.Th), trabecular number (Tb.N) and trabecular separation (Tb.Sp) were derived from these measurements using standard formulae.
Slides were evaluated in animal ID order, i.e. in random order with respect to treatment, so that the measurer was effectively blinded to treatment assignment.
Analysis was performed on all four condyles at two levels (Level 1 and 2) for each condyle:
Group 1) sham + vehicle; Group 2) ACLT + vehicle; Group 3) ACLT + MIV-711, 30 µmol/kg (low dose) and Group 4) ACLT + MIV-711, 100 µmol/kg (high dose).

[1] = Level 1 LFC, Group 3, ACLT + MIV-711 30 µmol/kg
[2] = Level 1 LFC, Group 4, ACLT + MIV-711 100 µmol/kg
[3] = Level 1 LTP, Group 3, ACLT + MIV-711 30 µmol/kg
[4] = Level 1 LTP, Group 4, ACLT + MIV-711 100 µmol/kg
[5] = Level 1 MFC, Group 3, ACLT + MIV-711 30 µmol/kg
[6] = Level 1 MFC, Group 4, ACLT + MIV-711 100 µmol/kg

C#C[C@@H]1CN(C(=O)[C@H](CC(C)C)NC(=O)c2ccc(-c3nc(N4CCN(C)CC4)sc3F)cc2)[C@@H]2C(=O)CO[C@H]12 [MIV-711] was tested, and the “effect on osteophyte parameters at the microscopic level” value (ACLT rabbits, 30 and 100 µmol/kg) was “did not affect”, the “Cart.Bd, Mean” value (Level 1, MFC, Group 3) was 8.37 mm and the “Cart.Bd, Median” value (Level 1, MFC, Group 3) was 8.42 mm. The “Cart.Pm, Mean” value (Level 1, MFC, Group 3) was 9.31 mm, the “Cart.Pm, Median” value (Level 1, MFC, Group 3) was 9.55 mm and the “Cart.Wi, Mean” value (Level 1, MFC, Group 3) was 264.49 µm. The “Cart.Wi, Median” value (Level 1, MFC, Group 3) was 233.46 µm, the “SCB.Wi, Mean” value (Level 1, MFC, Group 3) was 796.52 µm and the “SCB.Wi, Median” value (Level 1, MFC, Group 3) was 695.73 µm. The “Cart.Bd, Mean” value (Level 1, MFC, Group 4) was 8.94 mm, the “Cart.Bd, Median” value (Level 1, MFC, Group 4) was 8.89 mm and the “Cart.Pm, Mean” value (Level 1, MFC, Group 4) was 10.24 mm. For the same compound, the “Cart.Pm, Median” value (Level 1, MFC, Group 4) was 10.20 mm, the “Cart.Wi, Mean” value (Level 1, MFC, Group 4) was 323.96 µm and the “Cart.Wi, Median” value (Level 1, MFC, Group 4) was 341.58 µm. For the same compound, the “SCB.Wi, Mean” value (Level 1, MFC, Group 4) was 655.48 µm, the “SCB.Wi, Median” value (Level 1, MFC, Group 4) was 627.36 µm and the “BV/TV, Mean” value (Level 1, MTP, Group 3) was 37.43%. For the same compound, the “BV/TV, Median” value (Level 1, MTP, Group 3) was 39.13%, the “Cart.Ar, Mean” value (Level 1, MTP, Group 3) was 3.43 mm2 and the “Cart.Ar, Median” value (Level 1, MTP, Group 3) was 3.15 mm2. The “Cart.Bd, Mean” value (Level 1, MTP, Group 3) was 5.74 mm, the “Cart.Bd, Median” value (Level 1, MTP, Group 3) was 5.82 mm and the “Cart.Pm, Mean” value (Level 1, MTP, Group 3) was 5.96 mm. For the same compound, the “Cart.Pm, Median” value (Level 1, MTP, Group 3) was 5.73 mm, the “Cart.Wi, Mean” value (Level 1, MTP, Group 3) was 627.75 µm and the “Cart.Wi, Median” value (Level 1, MTP, Group 3) was 633.18 µm. The “Ophte.Ar, Mean” value (Level 1, MTP, Group 3) was 7.76 mm2, the “Ophte.Ar, Median” value (Level 1, MTP, Group 3) was 7.61 mm2 and the “SCB.Wi, Mean” value (Level 1, MTP, Group 3) was 718.50 µm. The “SCB.Wi, Median” value (Level 1, MTP, Group 3) was 715.91 µm, the “Tb.N, Mean” value (Level 1, MTP, Group 3) was 2.07 1/mm and the “Tb.N, Median” value (Level 1, MTP, Group 3) was 1.97 1/mm. The “Tb.Sp, Mean” value (Level 1, MTP, Group 3) was 306.15 µm, the “Tb.Sp, Median” value (Level 1, MTP, Group 3) was 294.58 µm and the “Tb.Th, Mean” value (Level 1, MTP, Group 3) was 182.44 µm. The “Tb.Th, Median” value (Level 1, MTP, Group 3) was 174.84 µm, the “BV/TV, Mean” value (Level 1, MTP, Group 4) was 35.92% and the “BV/TV, Median” value (Level 1, MTP, Group 4) was 35.01%. For the same compound, the “Cart.Ar, Mean” value (Level 1, MTP, Group 4) was 2.98 mm2, the “Cart.Ar, Median” value (Level 1, MTP, Group 4) was 3.00 mm2 and the “Cart.Bd, Mean” value (Level 1, MTP, Group 4) was 5.22 mm. The “Cart.Bd, Median” value (Level 1, MTP, Group 4) was 5.08 mm, the “Cart.Pm, Mean” value (Level 1, MTP, Group 4) was 6.31 mm and the “Cart.Pm, Median” value (Level 1, MTP, Group 4) was 5.70 mm. For the same compound, the “Cart.Wi, Mean” value (Level 1, MTP, Group 4) was 618.52 µm, the “Cart.Wi, Median” value (Level 1, MTP, Group 4) was 551.09 µm and the “Ophte.Ar, Mean” value (Level 1, MTP, Group 4) was 9.09 mm2. The “Ophte.Ar, Median” value (Level 1, MTP, Group 4) was 7.85 mm2, the “SCB.Wi, Mean” value (Level 1, MTP, Group 4) was 839.92 µm and the “SCB.Wi, Median” value (Level 1, MTP, Group 4) was 790.92 µm. For the same compound, the “Tb.N, Mean” value (Level 1, MTP, Group 4) was 1.91 1/mm, the “Tb.N, Median” value (Level 1, MTP, Group 4) was 1.80 1/mm and the “Tb.Sp, Mean” value (Level 1, MTP, Group 4) was 346.56 µm. For the same compound, the “Tb.Sp, Median” value (Level 1, MTP, Group 4) was 370.02 µm, the “Tb.Th, Mean” value (Level 1, MTP, Group 4) was 190.56 µm and the “Tb.Th, Median” value (Level 1, MTP, Group 4) was 188.86 µm. The “BV/TV, Mean” value [1] was 37.49%, the “BV/TV, Median” value [1] was 36.26% and the “Cart.Ar, Mean” value [1] was 2.52 mm2. The “Cart.Ar, Median” value [1] was 2.55 mm2, the “Cart.Bd, Mean” value [1] was 9.42 mm and the “Cart.Bd, Median” value [1] was 9.52 mm. The “Cart.Pm, Mean” value [1] was 10.23 mm, the “Cart.Pm, Median” value [1] was 10.40 mm and the “Cart.Wi, Mean” value [1] was 263.55 µm. For the same compound, the “Cart.Wi, Median” value [1] was 269.31 µm, the “Ophte.Ar, Mean” value [1] was 2.48 mm2 and the “Ophte.Ar, Median” value [1] was 1.89 mm2. The “SCB.Wi, Mean” value [1] was 527.88 µm, the “SCB.Wi, Median” value [1] was 537.74 µm and the “Tb.N, Mean” value [1] was 2.87 1/mm. For the same compound, the “Tb.N, Median” value [1] was 2.78 1/mm, the “Tb.Sp, Mean” value [1] was 221.27 µm and the “Tb.Sp, Median” value [1] was 221.54 µm. For the same compound, the “Tb.Th, Mean” value [1] was 131.58 µm, the “Tb.Th, Median” value [1] was 132.19 µm and the “BV/TV, Mean” value [2] was 40.76%. The “BV/TV, Median” value [2] was 39.99%, the “Cart.Ar, Mean” value [2] was 3.28 mm2 and the “Cart.Ar, Median” value [2] was 3.33 mm2. For the same compound, the “Cart.Bd, Mean” value [2] was 11.05 mm, the “Cart.Bd, Median” value [2] was 11.43 mm and the “Cart.Pm, Mean” value [2] was 11.98 mm. The “Cart.Pm, Median” value [2] was 12.38 mm, the “Cart.Wi, Mean” value [2] was 290.77 µm and the “Cart.Wi, Median” value [2] was 272.05 µm. The “Ophte.Ar, Mean” value [2] was 3.18 mm2, the “Ophte.Ar, Median” value [2] was 1.06 mm2 and the “SCB.Wi, Mean” value [2] was 478.03 µm. For the same compound, the “SCB.Wi, Median” value [2] was 466.56 µm, the “Tb.N, Mean” value [2] was 2.76 1/mm and the “Tb.N, Median” value [2] was 2.79 1/mm. For the same compound, the “Tb.Sp, Mean” value [2] was 215.44 µm, the “Tb.Sp, Median” value [2] was 222.15 µm and the “Tb.Th, Mean” value [2] was 147.91 µm. For the same compound, the “Tb.Th, Median” value [2] was 146.15 µm, the “BV/TV, Mean” value [3] was 43.89% and the “BV/TV, Median” value [3] was 43.62%. The “Cart.Ar, Mean” value [3] was 2.03 mm2, the “Cart.Ar, Median” value [3] was 2.02 mm2 and the “Cart.Bd, Mean” value [3] was 6.10 mm. For the same compound, the “Cart.Bd, Median” value [3] was 6.13 mm, the “Cart.Pm, Mean” value [3] was 6.15 mm and the “Cart.Pm, Median” value [3] was 6.13 mm. The “Cart.Wi, Mean” value [3] was 340.85 µm, the “Cart.Wi, Median” value [3] was 342.70 µm and the “Ophte.Ar, Mean” value [3] was 0.43 mm2. For the same compound, the “Ophte.Ar, Median” value [3] was 0.58 mm2, the “SCB.Wi, Mean” value [3] was 532.09 µm and the “SCB.Wi, Median” value [3] was 572.30 µm. The “Tb.N, Mean” value [3] was 2.79 1/mm, the “Tb.N, Median” value [3] was 2.77 1/mm and the “Tb.Sp, Mean” value [3] was 202.57 µm. For the same compound, the “Tb.Sp, Median” value [3] was 211.29 µm, the “Tb.Th, Mean” value [3] was 159.11 µm and the “Tb.Th, Median” value [3] was 141.92 µm. For the same compound, the “BV/TV, Mean” value [4] was 43.87%, the “BV/TV, Median” value [4] was 45.02% and the “Cart.Ar, Mean” value [4] was 2.49 mm2. For the same compound, the “Cart.Ar, Median” value [4] was 2.63 mm2, the “Cart.Bd, Mean” value [4] was 6.56 mm and the “Cart.Bd, Median” value [4] was 6.67 mm. For the same compound, the “Cart.Pm, Mean” value [4] was 6.48 mm, the “Cart.Pm, Median” value [4] was 6.62 mm and the “Cart.Wi, Mean” value [4] was 391.09 µm. For the same compound, the “Cart.Wi, Median” value [4] was 393.49 µm, the “Ophte.Ar, Mean” value [4] was 0.62 mm2 and the “Ophte.Ar, Median” value [4] was 0.37 mm2. The “SCB.Wi, Mean” value [4] was 557.78 µm, the “SCB.Wi, Median” value [4] was 592.81 µm and the “Tb.N, Mean” value [4] was 2.47 1/mm. The “Tb.N, Median” value [4] was 2.39 1/mm, the “Tb.Sp, Mean” value [4] was 232.42 µm and the “Tb.Sp, Median” value [4] was 223.55 µm. For the same compound, the “Tb.Th, Mean” value [4] was 179.81 µm, the “Tb.Th, Median” value [4] was 179.09 µm and the “BV/TV, Mean” value [5] was 52.87%. The “BV/TV, Median” value [5] was 51.00%, the “Cart.Ar, Mean” value [5] was 2.30 mm2 and the “Cart.Ar, Median” value [5] was 2.03 mm2. For the same compound, the “Ophte.Ar, Mean” value [5] was 2.75 mm2, the “Ophte.Ar, Median” value [5] was 2.12 mm2 and the “Tb.N, Mean” value [5] was 2.87 1/mm. The “Tb.N, Median” value [5] was 2.98 1/mm, the “Tb.Sp, Mean” value [5] was 164.11 µm and the “Tb.Sp, Median” value [5] was 161.32 µm. For the same compound, the “Tb.Th, Mean” value [5] was 190.82 µm, the “Tb.Th, Median” value [5] was 169.90 µm and the “BV/TV, Mean” value [6] was 46.41%. The “BV/TV, Median” value [6] was 48.01%, the “Cart.Ar, Mean” value [6] was 2.99 mm2 and the “Cart.Ar, Median” value [6] was 3.31 mm2. For the same compound, the “Ophte.Ar, Mean” value [6] was 5.87 mm2, the “Ophte.Ar, Median” value [6] was 1.02 mm2 and the “Tb.N, Mean” value [6] was 2.87 1/mm. For the same compound, the “Tb.N, Median” value [6] was 2.92 1/mm, the “Tb.Sp, Mean” value [6] was 189.94 µm and the “Tb.Sp, Median” value [6] was 173.69 µm. For the same compound, the “Tb.Th, Mean” value [6] was 161.31 µm.
